# Like-named read-outs stand apart in the source and are kept apart here.
# Legend:
# [1] = test system: Wild-type AB zebrafish larvae; assay: Zebrafish cardiovascular toxicity, administration via yolk sac injection; assay type: in vivo; conditions: yolk sac injection 10 nl
# Description: Wild-type AB zebrafish larvae were treated with the drugs to be tested for 24 hours via yolk sac injection administration with a maximum dose volume of 40 nl, and the five initial test concentrations were: 0.1 mg/mL, 1 mg/mL, 10 mg/mL, 100 mg/mL, and 500 mg/mL, respectively. At the same time, a blank control group was set up, with 30 zebrafish treated at each concentration. At the end of drug treatment, the number of zebrafish deaths in each experimental group was counted to provide a basis for the next experimental concentration design.
# 2.2.1 10 nl was administered via yolk sac injection. After treatment for a certain period of time, 10 zebrafish were randomly selected to have their heart rates counted, and their relative heart rates were calculated for comparison.
# 2.2.3 10 zebrafish in each group were randomly selected and observed under the dissecting microscope. […]
# Three formal experimental concentrations were set. After treatment for a certain period of time, 10 zebrafish were randomly selected to have their heart rates counted, and their relative heart rates were calculated for comparison.
# [2] = cited from earlier work
# [3] = test system: Wild-type AB zebrafish larvae; assay: Zebrafish cardiovascular toxicity, administration by dissolving the drug into the water; assay type: in vivo; set-up: Mortality / Incidence of Atrial Arrest: unit not given here
# [4] = Solubility Test for Nimodipine in Oil Phase; assay type: physicochemical; conditions: normal temperature; for solubility: oil or lipid
# From the text: There are different crystalline forms for nimodipine, i.e. α and β. The solubility is different in solvents for different crystalline forms. […] The solubility in an oil phase was not reported yet. […] Furthermore, the solubility of α-type is much greater than that of β-type both in the medium-chain fatty oil and the mixture of soybean oil and medium-chain fatty oil (see the table below). Therefore, formulating α-type nimodipine into a fat emulsion injection may solve the problems of low drug loading efficiency, poor safety, and poor stability occurring in its solution for injection and other fat emulsions for injection developed by the prior art. [table]
# [5] = cited from earlier work; remark: listed apart in the source
# guinea pigs = assay: Active Systemic Anaphylaxis Test in Guinea Pigs; conditions: positive control group, after stimulation
# SD rats = assay: Passive Anaphylaxis Test in Rats; assay type: in vivo, rat; set-up: key to Blue Stain Reaction: − indicates negative; + indicates positive; conditions: sensitized SD rats, 100 mg/kg intravenously, positive control
# [6] = dissolved into the water, 0.625 μg/ml
# [7] = dissolved into the water, 1.25 μg/ml
# [8] = dissolved into the water, 2.5 μg/ml
# [9] = dissolved into the water, 5.0 μg/ml
compound,measurement,setting,value
"COCCOC(=O)C1=C(C)NC(C)=C(C(=O)OC(C)C)C1c1cccc([N+](=O)[O-])c1 (centres unmarked) [Drug substance, Nimodipine]",Actual Heart Rate (± SD),[1]; 0.5 mg/ml,159.0 ± 6.8 beat / min
same,Incidence of Circulatory Insufficiency,[1]; 0.5 mg/ml,0%
same,Incidence of Decreased Blood Flow,[1]; 0.5 mg/ml,0%
same,Incidence of Pericardial Edema,[1]; 0.5 mg/ml,0%
same,Mortality,[1]; 0.5 mg/ml,0%
same,Relative Heart Rate (± SD),[1]; 0.5 mg/ml,99.1 ± 4.2%
same,Actual Heart Rate (± SD),[1]; 1.0 mg/ml,159.6 ± 5.3 beat / min
same,Incidence of Circulatory Insufficiency,[1]; 1.0 mg/ml,0%
same,Incidence of Decreased Blood Flow,[1]; 1.0 mg/ml,10%
same,Incidence of Pericardial Edema,[1]; 1.0 mg/ml,20%
same,Mortality,[1]; 1.0 mg/ml,0%
same,Relative Heart Rate (± SD),[1]; 1.0 mg/ml,99.4 ± 3.3%
same,Actual Heart Rate (± SD),[1]; 2.0 mg/ml,158.4 ± 8.7 beat / min
same,Incidence of Circulatory Insufficiency,[1]; 2.0 mg/ml,10%
same,Incidence of Decreased Blood Flow,[1]; 2.0 mg/ml,10%
same,Mortality,[1]; 2.0 mg/ml,0%
same,Relative Heart Rate (± SD),[1]; 2.0 mg/ml,98.7 ± 5.4%
same,Incidence of Pericardial Edema,[1]; 2.0 mg/ml (67 mg/kg),30%
same,Actual Heart Rate (± SD),[1]; 4.0 mg/ml,166.5 ± 7.2 beat / min
same,Incidence of Circulatory Insufficiency,[1]; 4.0 mg/ml,10%
same,Incidence of Decreased Blood Flow,[1]; 4.0 mg/ml,40%
same,Incidence of Pericardial Edema,[1]; 4.0 mg/ml,60%
same,Mortality,[1]; 4.0 mg/ml,20%
same,Relative Heart Rate (± SD),[1]; 4.0 mg/ml,103.7 ± 4.5%
same,Actual Heart Rate (± SD),[1]; 8.0 mg/ml,167.1 ± 10.2 beat / min
same,Incidence of Circulatory Insufficiency,[1]; 8.0 mg/ml,40%
same,Incidence of Decreased Blood Flow,[1]; 8.0 mg/ml,10%
same,Incidence of Pericardial Edema,[1]; 8.0 mg/ml,60%
same,Mortality,[1]; 8.0 mg/ml,33.3%
same,Relative Heart Rate (± SD),[1]; 8.0 mg/ml,104.1 ± 6.4%
same,Actual Heart Rate (± SD),[1]; 16 mg/ml,166.8 ± 10.3 beat / min
same,Incidence of Circulatory Insufficiency,[1]; 16 mg/ml,40%
same,Incidence of Decreased Blood Flow,[1]; 16 mg/ml,30%
same,Incidence of Pericardial Edema,[1]; 16 mg/ml,70%
same,Mortality,[1]; 16 mg/ml,50%
same,Relative Heart Rate (± SD),[1]; 16 mg/ml,103.9 ± 6.4%
same,Actual Heart Rate (± SD),[1]; 32 mg/ml,144.5 ± 7.4 beat / min
same,Incidence of Circulatory Insufficiency,[1]; 32 mg/ml,100%
same,Incidence of Decreased Blood Flow,[1]; 32 mg/ml,0%
same,Incidence of Pericardial Edema,[1]; 32 mg/ml,100%
same,Mortality,[1]; 32 mg/ml,80%
same,Relative Heart Rate (± SD),[1]; 32 mg/ml,90.0 ± 4.6 %
same,oral bioavailability,[2]; healthy subjects,5-13%
same,biological half-life,[2]; in vivo,1.5-2 h
same,oral bioavailability,[2]; patients with subarachnoid hemorrhage,3-28%
same,concentration at which pericardial edema was induced in all zebrafish,[3]; dissolved into the water,5000 ng/mL
same,Incidence of Atrial Arrest,[3]; [6],0
same,Incidence of Pericardial Edema,[3]; [6],10
same,Mortality,[3]; [6],0
same,Relative Heart Rate,[3]; [6],97.0
same,Incidence of Atrial Arrest,[3]; [7],0
same,Incidence of Pericardial Edema,[3]; [7],20
same,Mortality,[3]; [7],0
same,Relative Heart Rate,[3]; [7],94.8
same,Incidence of Atrial Arrest,[3]; [8],10
same,Incidence of Pericardial Edema,[3]; [8],50
same,Mortality,[3]; [8],0
same,Relative Heart Rate,[3]; [8],76.4
same,Incidence of Atrial Arrest,[3]; [9],90
same,Incidence of Pericardial Edema,[3]; [9],100
same,Mortality,[3]; [9],26.7
same,Relative Heart Rate,[3]; [9],58.5
same,incidence of atrial arrest,[3]; [9],90%
same,maximum non-lethal concentration,"[3]; zebrafish, drug dissolved into the water, 24 hours",2.5 µg/mL
"COCCOC(=O)C1=C(C)NC(C)=C(C(=O)OC(C)C)C1c1cccc([N+](=O)[O-])c1 (stereo not drawn) [α-type, nimodipine]","Solubility, Medium-chain Oil",[4],23.22 mg/mL
same,"Solubility, Soybean Oil",[4],7.5 mg/mL
same,"Solubility, Soybean Oil:Medium-chain Oil (4:6)",[4],18.1 mg/mL
"COCCOC(=O)C1=C(C)NC(C)=C(C(=O)OC(C)C)C1c1cccc([N+](=O)[O-])c1 (stereo not drawn) [β-type, nimodipine]",solubility,"[4]; medium-chain oil, read-out: Solubility, Medium-chain Oil",11.8 mg/mL
same,solubility,"[4]; soybean oil, read-out: Solubility, Soybean Oil",6.7 mg/mL
same,solubility,"[4]; soybean oil:medium-chain oil (4:6), read-out: Solubility, Soybean Oil:Medium-chain Oil (4:6)",11 mg/mL
same,"Solubility, Water",[5]; normal temperature,0.0036 mg/mL
same,solubility in water,[5]; published literature,0.0036 mg/mL
bovine serum albumin: positive control of the anaphylaxis tests,intensity of anaphylaxis reaction,guinea pigs,++˜++++
same,mortality rate,guinea pigs,50%
same,total reaction rate,guinea pigs,100%
same,Blue Stain Reaction,SD rats,+
same,Blue Stain Reaction (diameter),SD rats,22.0 ± 4.3 mm
